# Reference: US10034886B2, “GLP-1 receptor modulators” (Celgene International II SÀRL, priority 2014, dated 2018)
# Target: T1, GLP-1R (Homo sapiens, UniProt P43220)
# T1 construct: host or cells: GLP-1R CRE-bla CHO-K1 cells
# Assay: EC20 GLP-1(9-36) PAM cAMP assay: dose response of compound in the presence of fixed concentration of GLP-1(9-36)
# Assay type: cell-based
# Conditions: dose response of compound in presence of fixed concentration of GLP-1(9-36), GLP-1R CRE-bla CHO-K1 cells, read-out: EC20 GLP-1(9-36) PAM EC50
# Procedure, shortened: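 Positive allosteric modulation read as cAMP accumulation: compound titrations (12 points) combined with an EC20 level of GLP-1(9-36) on CHO-K1 GLP-1R CRE-bla cells, IBMX present, 30 min, 37 °C, pH 7.4 buffer. Luminescence converted to cAMP via standards; non-linear fit gave EC50 and Emax.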
# T1 sequence (P43220 24-463): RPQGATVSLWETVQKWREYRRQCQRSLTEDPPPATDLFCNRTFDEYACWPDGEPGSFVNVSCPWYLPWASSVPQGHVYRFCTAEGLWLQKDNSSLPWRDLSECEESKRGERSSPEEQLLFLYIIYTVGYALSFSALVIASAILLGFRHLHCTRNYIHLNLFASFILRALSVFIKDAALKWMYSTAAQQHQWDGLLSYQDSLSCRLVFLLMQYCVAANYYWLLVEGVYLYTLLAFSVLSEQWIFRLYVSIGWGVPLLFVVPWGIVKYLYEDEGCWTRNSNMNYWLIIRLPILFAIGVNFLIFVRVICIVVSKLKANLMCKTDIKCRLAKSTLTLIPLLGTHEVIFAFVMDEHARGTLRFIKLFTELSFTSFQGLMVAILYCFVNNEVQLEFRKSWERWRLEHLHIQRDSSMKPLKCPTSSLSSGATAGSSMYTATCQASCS
# T1 sequence (P01275 100-127 partner limits assumed): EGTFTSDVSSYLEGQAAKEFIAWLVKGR
row,SMILES,EC50 [nM]
1,CC(C)CCSc1ccc(-c2cnc(-c3ccc(C[C@H](NC(=O)c4ccc(C(C)(C)C)cc4)C(=O)NCCC(=O)O)cc3)nc2)cc1 [Compound 681],5000 to 10000
2,CC(C)(C)c1ccc(C(=O)N[C@@H](Cc2ccc(-c3ncc(-c4ccc(OCC(F)(F)F)cc4)cn3)cc2)C(=O)NCCC(=O)O)cc1 [Compound 682],2500 to 5000
3,CCCCCCCCc1ccc(-c2cnc(-c3ccc(C[C@H](NC(=O)c4ccc(C(C)(C)C)cc4)C(=O)NCCC(=O)O)cc3)nc2)cc1 [Compound 683],800 to 2500
4,CC(C)(C)c1ccc(C(=O)N[C@@H](Cc2ccc(-c3ncc(-c4ccc(OCC5CC5)cc4)cn3)cc2)C(=O)NCCC(=O)O)cc1 [Compound 684],5000 to 10000
5,CC(C)COc1ccc(-c2cnc(-c3ccc(C[C@H](NC(=O)c4ccc(C(C)(C)C)cc4)C(=O)NCCC(=O)O)cc3)nc2)cc1 [Compound 685],2500 to 5000
6,CCCCCCNc1ccc(-c2cnc(-c3ccc(C[C@H](NC(=O)c4ccc(C(C)(C)C)cc4)C(=O)NCCC(=O)O)cc3)nc2)cc1 [Compound 686],2500 to 5000
7,CCCc1ccc(-c2cnc(-c3ccc(C[C@H](NC(=O)c4ccc(C(C)(C)C)cc4)C(=O)NCCC(=O)O)cc3)nc2)cc1 [Compound 687],2500 to 5000
8,CC(C)(C)c1ccc(C(=O)N[C@@H](Cc2ccc(-c3ncc(-c4ccc(OC5CCCC5)cc4)cn3)cc2)C(=O)NCCC(=O)O)cc1 [Compound 688],2500 to 5000
9,CC(C)(C)c1ccc(C(=O)N[C@@H](Cc2ccc(-c3ncc(-c4ccc(C#Cc5ccccc5)cc4)cn3)cc2)C(=O)NCCC(=O)O)cc1 [Compound 689],2500 to 5000
10,CCCCCC(=O)c1ccc(-c2cnc(-c3ccc(C[C@H](NC(=O)c4ccc(C(C)(C)C)cc4)C(=O)NCCC(=O)O)cc3)nc2)cc1 [Compound 690],2500 to 5000
11,CC(C)(C)c1ccc(C(=O)N[C@@H](Cc2ccc(-c3ncc(-c4ccc(OC(F)=C(F)F)cc4)cn3)cc2)C(=O)NCCC(=O)O)cc1 [Compound 691],2500 to 5000
12,CCCCCCc1noc(-c2cnc(-c3ccc(C[C@H](NC(=O)c4ccc(C(C)(C)C)cc4)C(=O)NCCC(=O)O)cc3)nc2)n1 [Compound 692],5000 to 10000
13,CCCCCCOCC1CCN(c2cnc(-c3ccc(C[C@H](NC(=O)c4ccc(C(C)(C)C)cc4)C(=O)NCCC(=O)O)cc3)nc2)CC1 [Compound 693],5000 to 10000
14,C=CCCOc1ccc(-c2cnc(-c3ccc(C[C@H](NC(=O)c4ccc(C(C)(C)C)cc4)C(=O)NCCC(=O)O)cc3)nc2)cc1 [Compound 694],2500 to 5000
15,CC(C)Oc1ccc(-c2cnc(-c3ccc(C[C@H](NC(=O)c4ccc(C(C)(C)C)cc4)C(=O)NCCC(=O)O)cc3)nc2)cc1 [Compound 695],2500 to 5000
16,CCC(CC)Oc1ccc(-c2cnc(-c3ccc(C[C@H](NC(=O)c4ccc(C(C)(C)C)cc4)C(=O)NCCC(=O)O)cc3)nc2)cc1 [Compound 696],2500 to 5000
17,CCCCCCCOc1ccc(-c2cnc(-c3ccc(C[C@H](NC(=O)c4ccc(C(C)(C)C)cc4)C(=O)NCCC(=O)O)cc3)nc2)cc1F [Compound 697],2500 to 5000

row,SMILES,EC50 [nM]
1,CCCCCCCOc1ccc(-c2cnc(-c3ccc(C[C@H](NC(=O)c4ccc(C(C)(C)C)cc4)C(=O)NCCC(=O)O)cc3)nc2)cc1C [Compound 698],< 800
2,CCCCCCCOc1ccc(-c2cnc(-c3ccc(C[C@H](NC(=O)c4ccc(C(C)(C)C)cc4)C(=O)NCCC(=O)O)cc3)nc2)cc1OC [Compound 699],5000 to 10000
3,CCCCCCCOc1ccc(-c2cnc(-c3ccc(C[C@H](NC(=O)c4ccc(C(C)(C)C)cc4)C(=O)NCCC(=O)O)cc3)nc2)cc1C#N [Compound 700],5000 to 10000
4,CCCCCCCOc1ccc(-c2cnc(-c3ccc(C[C@H](NC(=O)c4ccc(C(C)(C)C)cc4)C(=O)NCCC(=O)O)cc3)nc2)c(Cl)c1 [Compound 701],2500 to 5000
5,CCCCCCCOc1ccc(-c2cnc(-c3ccc(C[C@H](NC(=O)c4ccc(C(C)(C)C)cc4)C(=O)NCCC(=O)O)cc3)nc2)cc1Cl [Compound 702],800 to 2500
6,CCCCCCCOc1ccc(-c2cnc(-c3ccc(C[C@H](NC(=O)c4ccc(C(C)(C)C)cc4)C(=O)NCCC(=O)O)cc3)nc2)cc1CC [Compound 703],< 800
7,CCCCCCCOc1ccc(-c2cnc(-c3ccc(C[C@H](NC(=O)c4ccc(C(C)(C)C)cc4)C(=O)NCCC(=O)O)cc3)nc2)cc1C1CC1 [Compound 704],800 to 2500
8,CCCCCCCOc1c(C)cc(-c2cnc(-c3ccc(C[C@H](NC(=O)c4ccc(C(C)(C)C)cc4)C(=O)NCCC(=O)O)cc3)nc2)cc1C [Compound 705],800 to 2500
9,CCCC(C)CCOc1ccc(-c2cnc(-c3ccc(C[C@H](NC(=O)c4ccc(C(C)(C)C)cc4)C(=O)NCCC(=O)O)cc3)nc2)cc1 (stereo partly shown) [Compound 706],800 to 2500
10,CCCC(C)COc1ccc(-c2cnc(-c3ccc(C[C@H](NC(=O)c4ccc(C(C)(C)C)cc4)C(=O)NCCC(=O)O)cc3)nc2)cc1 (stereo partly shown) [Compound 707],5000 to 10000
11,CCCOc1ccc(-c2cnc(-c3ccc(C[C@H](NC(=O)c4ccc(C(C)(C)C)cc4)C(=O)NCCC(=O)O)cc3)nc2)cc1 [Compound 708],800 to 2500
12,CCCCOc1ccc(-c2cnc(-c3ccc(C[C@H](NC(=O)c4ccc(C(C)(C)C)cc4)C(=O)NCCC(=O)O)cc3)nc2)cc1 [Compound 709],800 to 2500
13,CCCCCOc1ccc(-c2cnc(-c3ccc(C[C@H](NC(=O)c4ccc(C(C)(C)C)cc4)C(=O)NCCC(=O)O)cc3)nc2)cc1 [Compound 710],5000 to 10000
14,CCCCCCOc1ccc(-c2cnc(-c3ccc(C[C@H](NC(=O)c4ccc(C(C)(C)C)cc4)C(=O)NCCC(=O)O)cc3)nc2)cc1 [Compound 711],2500 to 5000
15,CCCCCCCCOc1ccc(-c2cnc(-c3ccc(C[C@H](NC(=O)c4ccc(C(C)(C)C)cc4)C(=O)NCCC(=O)O)cc3)nc2)cc1 [Compound 712],800 to 2500
16,CC(C)(C)c1ccc(COc2ccc(-c3cnc(-c4ccc(C[C@H](NC(=O)c5ccc(C(C)(C)C)cc5)C(=O)NCCC(=O)O)cc4)nc3)cc2)cc1 [Compound 713],800 to 2500

# Next, values leading:
row,EC50 [nM],SMILES
1,2500 to 5000,C/C=C/CCCOc1ccc(-c2cnc(-c3ccc(C[C@H](NC(=O)c4ccc(C(C)C)cc4)C(=O)NCCC(=O)O)cc3)nc2)cc1 [Compound 714]
2,2500 to 5000,CCC/C=C\CCOc1ccc(-c2cnc(-c3ccc(C[C@H](NC(=O)c4ccc(C(C)(C)C)cc4)C(=O)NCCC(=O)O)cc3)nc2)cc1 [Compound 715]
3,800 to 2500,CCC/C=C/CCOc1ccc(-c2cnc(-c3ccc(C[C@H](NC(=O)c4ccc(C(C)(C)C)cc4)C(=O)NCCC(=O)O)cc3)nc2)cc1 [Compound 716]
4,800 to 2500,CCCCOc1ccc(-c2cnc(-c3ccc(C[C@H](NC(=O)c4ccc(C(C)(C)C)cc4)C(=O)N[C@H](C)C(=O)O)cc3)nc2)cc1 [Compound 717]
5,2500 to 5000,CCCCCOc1ccc(-c2cnc(-c3ccc(C[C@H](NC(=O)c4ccc(C(C)(C)C)cc4)C(=O)N[C@H](C)C(=O)O)cc3)nc2)cc1 [Compound 718]
6,800 to 2500,CCCCCCOc1ccc(-c2cnc(-c3ccc(C[C@H](NC(=O)c4ccc(C(C)(C)C)cc4)C(=O)N[C@H](C)C(=O)O)cc3)nc2)cc1 [Compound 719]
7,2500 to 5000,C[C@@H](NC(=O)[C@H](Cc1ccc(-c2ncc(-c3ccc(C(C)(C)C)cc3)cn2)cc1)NC(=O)c1ccc(C(C)(C)C)cc1)C(=O)O [Compound 720]
8,800 to 2500,CCOc1ccc(-c2cnc(-c3ccc(C[C@H](NC(=O)c4ccc(C(C)(C)C)cc4)C(=O)N[C@H](C)C(=O)O)cc3)nc2)cc1 [Compound 721]
9,800 to 2500,CCCOc1ccc(-c2cnc(-c3ccc(C[C@H](NC(=O)c4ccc(C(C)(C)C)cc4)C(=O)N[C@H](C)C(=O)O)cc3)nc2)cc1 [Compound 722]
10,800 to 2500,CCCCCCCCOc1ccc(-c2cnc(-c3ccc(C[C@H](NC(=O)c4ccc(C(C)(C)C)cc4)C(=O)N[C@H](C)C(=O)O)cc3)nc2)cc1 [Compound 723]
11,800 to 2500,CCCCCCCc1ccc(-c2cnc(-c3ccc(C[C@H](NC(=O)c4ccc(C(C)(C)C)cc4)C(=O)N[C@H](C)C(=O)O)cc3)nc2)cc1 [Compound 724]
12,800 to 2500,CCCCCC(=O)c1ccc(-c2cnc(-c3ccc(C[C@H](NC(=O)c4ccc(C(C)(C)C)cc4)C(=O)N[C@H](C)C(=O)O)cc3)nc2)cc1 [Compound 725]
13,800 to 2500,C[C@@H](NC(=O)[C@H](Cc1ccc(-c2ncc(-c3ccc(OCC(C)(C)C)cc3)cn2)cc1)NC(=O)c1ccc(C(C)(C)C)cc1)C(=O)O [Compound 726]
14,2500 to 5000,Cc1ccc(-c2ccc(-c3cnc(-c4ccc(C[C@H](NC(=O)c5ccc(C(C)(C)C)cc5)C(=O)N[C@H](C)C(=O)O)cc4)nc3)cc2)cc1 [Compound 727]
15,800 to 2500,C[C@@H](NC(=O)[C@H](Cc1ccc(-c2ncc(-c3ccc(C(F)(F)F)cc3)cn2)cc1)NC(=O)c1ccc(C(C)(C)C)cc1)C(=O)O [Compound 728]
16,800 to 2500,CCCCCCNc1ccc(-c2cnc(-c3ccc(C[C@H](NC(=O)c4ccc(C(C)(C)C)cc4)C(=O)N[C@H](C)C(=O)O)cc3)nc2)cc1 [Compound 729]
17,2500 to 5000,COc1ccc(-c2cnc(-c3ccc(C[C@H](NC(=O)c4ccc(C(C)(C)C)s4)C(=O)N[C@H](C)C(=O)O)cc3)nc2)cc1 [Compound 730]
18,2500 to 5000,CCOc1ccc(-c2cnc(-c3ccc(C[C@H](NC(=O)c4ccc(C(C)(C)C)s4)C(=O)N[C@H](C)C(=O)O)cc3)nc2)cc1 [Compound 731]
19,800 to 2500,CCCOc1ccc(-c2cnc(-c3ccc(C[C@H](NC(=O)c4ccc(C(C)(C)C)s4)C(=O)N[C@H](C)C(=O)O)cc3)nc2)cc1 [Compound 732]
20,800 to 2500,CCCCOc1ccc(-c2cnc(-c3ccc(C[C@H](NC(=O)c4ccc(C(C)(C)C)s4)C(=O)N[C@H](C)C(=O)O)cc3)nc2)cc1 [Compound 733]
21,800 to 2500,CCCCCOc1ccc(-c2cnc(-c3ccc(C[C@H](NC(=O)c4ccc(C(C)(C)C)s4)C(=O)N[C@H](C)C(=O)O)cc3)nc2)cc1 [Compound 734]
22,800 to 2500,CCCCCCOc1ccc(-c2cnc(-c3ccc(C[C@H](NC(=O)c4ccc(C(C)(C)C)s4)C(=O)N[C@H](C)C(=O)O)cc3)nc2)cc1 [Compound 735]
